In ChEMBL document CHEMBL1158709, “Cytotoxic flavanones of Schizolaena hystrix from the Madagascar rainforest” (J Nat Prod, 2005):
≈ marks a conversion by molar mass, not a printed value.

System: A2780
Assay: Cytotoxicity against human A2780 cells
Format: functional, cell-based

| Structure (SMILES) | IC50 |
| --- | --- |
| COc1ccc([C@@H]2CC(=O)c3c(cc(O)c(C/C=C(\C)CCC=C(C)C)c3O)O2)cc1 | 17 µg/mL (≈ 40.2 µM) |
| CC(C)=CCC/C(C)=C/Cc1c(O)cc2c(c1O)C(=O)[C@H](O)[C@@H](c1ccc(O)cc1)O2 [BONANNIOL A] | 25 µg/mL (≈ 58.9 µM) |
| CC(C)=CCC/C(C)=C/Cc1c(O)cc2c(c1O)C(=O)C[C@@H](c1ccc(O)cc1)O2 [BONANNIONE A] | 12 µg/mL (≈ 29.4 µM) |
| CC(C)=CCc1cc([C@@H]2CC(=O)c3c(cc(O)c(CC=C(C)C)c3O)O2)ccc1O [MACARANGAFLAVANONE B] | 16 µg/mL (≈ 39.2 µM) |
| CC(C)=CCC/C(C)=C/Cc1c(O)cc2c(c1O)C(=O)C[C@@H](c1ccc(O)c(O)c1)O2 [NYMPHAEOL A] | 5.5 µg/mL (≈ 13 µM) |
| CC(C)=CCC/C(C)=C/Cc1cc([C@@H]2CC(=O)c3c(cc(O)c(CC=C(C)C)c3O)O2)ccc1O [SCHIZOLAENONE A] | 10 µg/mL (≈ 21 µM) |
| CC(C)=CCC/C(C)=C/Cc1cc([C@@H]2CC(=O)c3c(cc(O)c(CC=C(C)C)c3O)O2)cc(O)c1O [SCHIZOLAENONE B] | 11 µg/mL (≈ 22.3 µM) |
